Source: the supplement of paper PMC10307832

Legend:
Assay in all cases: relative viability (nuclei count vs DMSO), 5 days (fraction); higher = more cells survive
[1] = compound: COc1cc2nc(N3CCCN(C)CC3)nc(NC3CCN(Cc4ccccc4)CC3)c2cc1OC + Cc1nc(NC(=O)N2CCC[C@H]2C(N)=O)sc1-c1ccnc(C(C)(C)C(F)(F)F)c1 [Alpelisib] (partner 2 µM)
Outline: (§1)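 Cells from lung cancer lines were seeded into 1536-well plates and, one day later, dosed by pin tool. Treatments were either a single drug or a fixed dose of an anchor drug with five library-drug doses (not always all listed) in √10 steps. After 5 days, nuclei were stained in a one-step fixation (final 0.05% Triton X-100, 1% formaldehyde, 1 ug/ml Hoechst) and counted on 4× images, and relative viability is the treated-to-vehicle nuclei ratio, as the median of duplicate plates.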

AZD6482 + Palbociclib = compound: Cc1cc([C@@H](C)Nc2ccccc2C(=O)O)c2nc(N3CCOCC3)cc(=O)n2c1 [AZD6482] + CC(=O)c1c(C)c2cnc(Nc3ccc(N4CCNCC4)cn3)nc2n(C2CCCC2)c1=O [Palbociclib] (partner 0.5 µM)
Outline: as §1

AZD6482 + Navitoclax = compound: Cc1cc([C@@H](C)Nc2ccccc2C(=O)O)c2nc(N3CCOCC3)cc(=O)n2c1 [AZD6482] + CC1(C)CCC(c2ccc(Cl)cc2)=C(CN2CCN(c3ccc(C(=O)NS(=O)(=O)c4ccc(N[C@H](CCN5CCOCC5)CSc5ccccc5)c(S(=O)(=O)C(F)(F)F)c4)cc3)CC2)C1 [Navitoclax] (partner 0.5 µM)
Outline: as §1

AZD6482 + Linsitinib = compound: Cc1cc([C@@H](C)Nc2ccccc2C(=O)O)c2nc(N3CCOCC3)cc(=O)n2c1 [AZD6482] + C[C@]1(O)C[C@@H](c2nc(-c3ccc4ccc(-c5ccccc5)nc4c3)c3c(N)nccn32)C1 [Linsitinib] (partner 1 µM)
Outline: as §1

UMC-11
relative viability ([1]; first compound 0.2 µM): 0.953
relative viability ([1]; first compound 0.6325 µM): 0.973
relative viability ([1]; first compound 2 µM): 1.15
relative viability ([1]; first compound 6.325 µM): 1.01
relative viability (AZD6482 + Palbociclib; first compound 0.08 µM): 0.342
relative viability (AZD6482 + Palbociclib; first compound 0.253 µM): 0.297
relative viability (AZD6482 + Palbociclib; first compound 0.8 µM): 0.321
relative viability (AZD6482 + Palbociclib; first compound 8 µM): 0.324
relative viability (AZD6482 + Navitoclax; first compound 0.08 µM): 0.331
relative viability (AZD6482 + Navitoclax; first compound 0.253 µM): 0.329
relative viability (AZD6482 + Navitoclax; first compound 0.8 µM): 0.313
relative viability (AZD6482 + Navitoclax; first compound 2.53 µM): 0.309
relative viability (AZD6482 + Navitoclax; first compound 8 µM): 0.275
relative viability (AZD6482 + Linsitinib; first compound 0.08 µM): 0.959
relative viability (AZD6482 + Linsitinib; first compound 0.253 µM): 0.962
relative viability (AZD6482 + Linsitinib; first compound 0.8 µM): 0.987
relative viability (AZD6482 + Linsitinib; first compound 2.53 µM): 0.787
relative viability (AZD6482 + Linsitinib; first compound 8 µM): 1
